Measured values as given in patent publication US4556737A, “Sulfonium compounds, processes for preparing the compounds and pharmacological composiitons containing the same” (Taiho Pharmaceutical Company Limited, priority 1983, dated 1985).

Experiments:
[1] = tested on: passive cutaneous anaphylaxis (PCA); assay: Effect on passive cutaneous anaphylaxis (PCA); format: in vivo, male Wister rats; details: 1 hour prior to antigen challenge, rat
Description: (1) Effect on passive cutaneous anaphylaxis (PCA)
A serum containing the homocytotropic antibody was intracutaneously injected at four points of the shaven back of the male Wister rats weighing 180 to 200 g. Fourty-eight hours after the injection, a physiological saline containing 2.0 mg of DNP-As and 2.5 mg of Evans Blue to induce response, and the rats were dehematized to death in 30 minutes. […] The present compounds were administered to the rats 1 hour prior to the antigen challenge.

Acute toxicity test = details: mouse, in vivo, ip; male ddy mice, intraperitoneal, solution in physiological saline, up-down method
Description: Male ddy mice weighing about 20 g were used. A solution of the compound in physiological saline was injected intraperitoneally. The dose lethal to 50% of mice was determined by the up-down method.

Row | Compound | LD50 (Acute toxicity test) | inhibition in vivo at 100 mg/kg [1] | other results
1 | CC(=O)OCC(COc1ccc(OCC[S+](C)C)cc1)OC(C)=O (centres unmarked) [Compound 55] | 291 mg/kg |  | inhibition in vivo at 50 mg/kg [1]: 55.2%
2 | C[S+](C)CCOc1ccc(OCC(O)COc2ccccc2)cc1.Cc1ccc(S(=O)(=O)[O-])cc1 (centres unmarked) [Compound 51, 2-{4-(2-hydroxy-3-phenoxypropoxy)phenoxy}ethyldimethylsulfonium p-toluenesulfonate] | 150 mg/kg | 56.7% | 
3 | C[S+](C)CCOc1ccc(OCC(O)COCC2CCCO2)cc1 (centres unmarked) [Compound 49] | 221 mg/kg |  | inhibition in vivo at 20 mg/kg [1]: 42.5%
4 | COCC(COc1ccc(NC(=O)CC[S+](C)C)cc1)OC (centres unmarked) [Compound 19] | 254 mg/kg |  | inhibition in vivo at 10 mg/kg [1]: 51.6%
5 | CCOCC(O)COc1ccc(OCC[S+](C)C)cc1 (centres unmarked) [Compound 46] |  | 64.8% | 
6 | COCC(O)COc1ccc(NC(=O)CC[S+](C)C)cc1.Cc1ccc(S(=O)(=O)[O-])cc1 (centres unmarked) [Compound 7, 2-{4-(2-hydroxy-3-methoxypropoxy)phenylcarbamoyl}ethyldimethylsulfonium p-toluenesulfonate] | 359 mg/kg | 57% | 
7 | C[S+](C)CCOc1ccc(OCC(O)CO)cc1 (centres unmarked) [Compound 44] | 352 mg/kg |  | inhibition in vivo at 200 mg/kg [1]: 57%
8 | C[S+](C)CCC(=O)Nc1ccc(OCC(O)COC2CCCCC2)cc1 (centres unmarked) [Compound 17] | 93.6 mg/kg | 47% | 
9 | C[S+](C)CCOc1ccc(OCC(O)COC(N)=O)cc1 (centres unmarked) [Compound 54] | 327 mg/kg |  | inhibition in vivo at 20 mg/kg [1]: 51.8%
10 | C[S+](C)CCOc1ccccc1OCC(O)CO.Cc1ccc(S(=O)(=O)[O-])cc1 (centres unmarked) [Compound 40, 2-{2-(2,3-dihydroxypropoxy)phenoxy}ethyldimethylsulfonium p-toluenesulfonate] | 283 mg/kg |  | inhibition in vivo at 200 mg/kg [1]: 53.2%
11 | CCOCC(O)COc1ccc(NC(=O)CC[S+](C)C)cc1 (centres unmarked) [Compound 8] | 254 mg/kg |  | inhibition in vivo at 20 mg/kg [1]: 57%
12 | CCOCC(COc1ccc(NC(=O)CC[S+](C)C)cc1)OCC (centres unmarked) [Compound 20] | 179 mg/kg |  | inhibition in vivo at 50 mg/kg [1]: 35.1%
13 | COCC(O)COc1ccc(OCC[S+](C)C)cc1.Cc1ccc(S(=O)(=O)[O-])cc1 (centres unmarked) [Compound 45, 2-{4-(2-hydroxy-3-methoxypropoxy)phenoxy}ethyldimethylsulfonium p-toluenesulfonate] | 302 mg/kg |  | inhibition in vivo at 200 mg/kg [1]: 59%
14 | CCCOCC(O)COc1ccc(OCC[S+](C)C)cc1 (centres unmarked) [Compound 47] | 293 mg/kg |  | inhibition in vivo at 50 mg/kg [1]: 39.2%
15 | C[S+](C)CCC(=O)Nc1ccc(OCC(O)COc2ccccc2)cc1 (centres unmarked) [Compound 18] | 112 mg/kg | 34% | 
16 | CCOCC(COc1ccc(OCC[S+](C)C)cc1)OCC (centres unmarked) [Compound 52] | 132 mg/kg | 53.3% | 
17 | CC(=O)OCC(COc1ccc(NC(=O)CC[S+](C)C)cc1)OC(C)=O (centres unmarked) [Compound 32] | 366 mg/kg |  | inhibition in vivo at 10 mg/kg [1]: 47%
18 | CCOCCOCC(O)COc1ccc(OCC[S+](C)C)cc1 (centres unmarked) [Compound 48] | 302 mg/kg |  | inhibition in vivo at 20 mg/kg [1]: 48%
19 | C[S+](C)CCOc1cccc(OCC(O)CO)c1 (centres unmarked) [Compound 42] | 231 mg/kg |  | inhibition in vivo at 200 mg/kg [1]: 58.4%
20 | C[S+](C)CCC(=O)Nc1ccc(OCC(O)CO)cc1.Cc1ccc(S(=O)(=O)[O-])cc1 (centres unmarked) [Compound 4, 2-{4-(2,3-dihydroxypropoxy)phenylcarbamoyl}ethyldimethylsulfonium p-toluenesulfonate] | 1040 mg/kg |  | inhibition in vivo at 50 mg/kg [1]: 48.8%
21 | C[S+](C)CCOc1ccc(OCC(COC(=O)c2ccccc2)OC(=O)c2ccccc2)cc1 (centres unmarked) [Compound 56] | 85 mg/kg | 44.7% | 
22 | CCCOCC(COc1ccc(NC(=O)CC[S+](C)C)cc1)OCCC (centres unmarked) [Compound 29] | 75.2 mg/kg |  | inhibition in vivo at 50 mg/kg [1]: 46.2%
23 | CCOCC(COc1ccc(NC(=O)CC[S+](C)C)cc1)OC(C)=O (centres unmarked) [Compound 25] | 233 mg/kg | 63.6% | 
24 | CCCOCC(O)COc1ccc(NC(=O)CC[S+](C)C)cc1 (centres unmarked) [Compound 10] | 171 mg/kg | 47% | 
